From the supplement of paper PMC10307832

Legend:
Assay in all cases: relative viability (nuclei count vs DMSO), 5 days (fraction); higher = more cells survive
Carfilzomib + Luminespib = compound: CC(C)C[C@H](NC(=O)[C@H](CCc1ccccc1)NC(=O)CN1CCOCC1)C(=O)N[C@@H](Cc1ccccc1)C(=O)N[C@@H](CC(C)C)C(=O)[C@@]1(C)CO1 [Carfilzomib] + CCNC(=O)c1noc(-c2cc(C(C)C)c(O)cc2O)c1-c1ccc(CN2CCOCC2)cc1 [Luminespib] (partner 0.01 µM)
Summary of the method: (§1)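 Lung cancer cell lines, seeded in 1536-well plates, were treated the following day by pin tool with a single drug or with five library-drug doses (not always all listed) in √10 steps on top of a fixed anchor-drug dose. Cells were fixed and nuclei stained in one step after 5 days, and nuclei were counted. Relative viability is the nuclei count for treated wells divided by that for vehicle wells, reported as medians of duplicate plates.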

Crizotinib + Linsitinib = compound: C[C@@H](Oc1cc(-c2cnn(C3CCNCC3)c2)cnc1N)c1c(Cl)ccc(F)c1Cl [Crizotinib] + C[C@]1(O)C[C@@H](c2nc(-c3ccc4ccc(-c5ccccc5)nc4c3)c3c(N)nccn32)C1 [Linsitinib] (partner 1 µM)
Summary of the method: as §1

Carfilzomib + Pemetrexed = compound: CC(C)C[C@H](NC(=O)[C@H](CCc1ccccc1)NC(=O)CN1CCOCC1)C(=O)N[C@@H](Cc1ccccc1)C(=O)N[C@@H](CC(C)C)C(=O)[C@@]1(C)CO1 [Carfilzomib] + Nc1nc2[nH]cc(CCc3ccc(C(=O)N[C@@H](CCC(=O)O)C(=O)O)cc3)c2c(=O)[nH]1 [Pemetrexed] (partner 0.2 µM)
Summary of the method: as §1

Carfilzomib + Olaparib = compound: CC(C)C[C@H](NC(=O)[C@H](CCc1ccccc1)NC(=O)CN1CCOCC1)C(=O)N[C@@H](Cc1ccccc1)C(=O)N[C@@H](CC(C)C)C(=O)[C@@]1(C)CO1 [Carfilzomib] + O=C(c1cc(Cc2n[nH]c(=O)c3ccccc23)ccc1F)N1CCN(C(=O)C2CC2)CC1 [Olaparib] (partner 8 µM)
Summary of the method: as §1

NCI-H1793
relative viability (Carfilzomib + Luminespib; first compound 0.003162 µM): 0.216
relative viability (Carfilzomib + Luminespib; first compound 0.01 µM): 0.172
relative viability (Carfilzomib + Luminespib; first compound 0.03162 µM): 0.181
relative viability (Carfilzomib + Luminespib; first compound 0.1 µM): 0.154
relative viability (Crizotinib + Linsitinib; first compound 0.01 µM): 1.01
relative viability (Crizotinib + Linsitinib; first compound 0.03162 µM): 0.922
relative viability (Crizotinib + Linsitinib; first compound 0.1 µM): 0.837
relative viability (Crizotinib + Linsitinib; first compound 1 µM): 0.87
relative viability (Carfilzomib + Pemetrexed; first compound 0.001 µM): 0.58
relative viability (Carfilzomib + Pemetrexed; first compound 0.003162 µM): 1.13
relative viability (Carfilzomib + Pemetrexed; first compound 0.01 µM): 0.861
relative viability (Carfilzomib + Pemetrexed; first compound 0.03162 µM): 0.7
relative viability (Carfilzomib + Pemetrexed; first compound 0.1 µM): 0.336
relative viability (Carfilzomib + Olaparib; first compound 0.001 µM): 0.811
relative viability (Carfilzomib + Olaparib; first compound 0.003162 µM): 1.05
relative viability (Carfilzomib + Olaparib; first compound 0.01 µM): 0.924
relative viability (Carfilzomib + Olaparib; first compound 0.03162 µM): 0.732
relative viability (Carfilzomib + Olaparib; first compound 0.1 µM): 0.223
